Results taken from PubChem BioAssay (NCI).
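Five concentrations, 48 hours, 96-well plates. TGI denotes the concentration required for complete inhibition of growth.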

Tests used:
Assay in all cases: NCI anticancer screen, dose series, 48 h
UACC-62 melanoma = system: UACC-62 melanoma
COLO 205 colon = system: COLO 205 colon
CCRF-CEM leukemia = system: CCRF-CEM leukemia
NCI-H226 lung = system: NCI-H226 lung
MDA-N = system: MDA-N
786-0 renal = system: 786-0 renal
NCI-H460 lung = system: NCI-H460 lung
SW-620 colon = system: SW-620 colon
HCT-116 colon = system: HCT-116 colon
LOX IMVI melanoma = system: LOX IMVI melanoma
MDA-MB-435 = system: MDA-MB-435
T-47D breast = system: T-47D breast
MOLT-4 leukemia = system: MOLT-4 leukemia
SK-MEL-5 melanoma = system: SK-MEL-5 melanoma
HS 578T breast = system: HS 578T breast
MCF7 breast = system: MCF7 breast
SF-268 CNS = system: SF-268 CNS
RPMI-8226 leukemia = system: RPMI-8226 leukemia
CAKI-1 renal = system: CAKI-1 renal
MALME-3M melanoma = system: MALME-3M melanoma
NCI-H522 lung = system: NCI-H522 lung
HCC-2998 colon = system: HCC-2998 colon
PC-3 prostate = system: PC-3 prostate
OVCAR-8 ovarian = system: OVCAR-8 ovarian
SK-MEL-2 melanoma = system: SK-MEL-2 melanoma
IGROV1 ovarian = system: IGROV1 ovarian
SNB-19 CNS = system: SNB-19 CNS
OVCAR-5 ovarian = system: OVCAR-5 ovarian
UACC-257 melanoma = system: UACC-257 melanoma
SNB-75 CNS = system: SNB-75 CNS
EKVX NSCLC = system: EKVX NSCLC
SF-539 CNS = system: SF-539 CNS
TK-10 renal = system: TK-10 renal
DU-145 prostate = system: DU-145 prostate
SK-OV-3 ovarian = system: SK-OV-3 ovarian
U251 CNS = system: U251 CNS
HOP-62 NSCLC = system: HOP-62 NSCLC
A549 NSCLC = system: A549 NSCLC
NCI/ADR-RES ovarian = system: NCI/ADR-RES ovarian
SF-295 CNS = system: SF-295 CNS
SK-MEL-28 melanoma = system: SK-MEL-28 melanoma
HOP-92 NSCLC = system: HOP-92 NSCLC
MDA-MB-231 breast = system: MDA-MB-231 breast
NCI-H23 lung = system: NCI-H23 lung
HCT-15 colon = system: HCT-15 colon
SR leukemia = system: SR leukemia
M14 melanoma = system: M14 melanoma
ACHN renal = system: ACHN renal
KM12 colon = system: KM12 colon
K-562 leukemia = system: K-562 leukemia
SN12C renal = system: SN12C renal
BT-549 breast = system: BT-549 breast
UO-31 renal = system: UO-31 renal
HT29 colon = system: HT29 colon
OVCAR-3 ovarian = system: OVCAR-3 ovarian
RXF 393 renal = system: RXF 393 renal
A498 renal = system: A498 renal
HL-60(TB) leukemia = system: HL-60(TB) leukemia
OVCAR-4 ovarian = system: OVCAR-4 ovarian

Compound: CCOC(=O)NC(Nc1ccc(OC(F)(F)F)cc1)(C(F)(F)F)C(F)(F)F
- TGI (UACC-62 melanoma): > 100 µM
- TGI (COLO 205 colon): > 100 µM
- TGI (CCRF-CEM leukemia): > 100 µM
- TGI (NCI-H226 lung): > 100 µM
- TGI (MDA-N): > 100 µM
- TGI (786-0 renal): > 100 µM
- TGI (NCI-H460 lung): > 100 µM
- TGI (SW-620 colon): > 100 µM
- TGI (HCT-116 colon): > 100 µM
- TGI (LOX IMVI melanoma): > 100 µM
- TGI (MDA-MB-435): > 100 µM
- TGI (T-47D breast): > 100 µM
- TGI (MOLT-4 leukemia): > 100 µM
- TGI (SK-MEL-5 melanoma): > 100 µM
- TGI (HS 578T breast): > 100 µM
- TGI (MCF7 breast): > 100 µM
- TGI (SF-268 CNS): > 100 µM
- TGI (RPMI-8226 leukemia): > 100 µM
- TGI (CAKI-1 renal): > 100 µM
- TGI (MALME-3M melanoma): > 100 µM
- TGI (NCI-H522 lung): > 100 µM
- TGI (HCC-2998 colon): > 100 µM
- TGI (PC-3 prostate): > 100 µM
- TGI (OVCAR-8 ovarian): > 100 µM
- TGI (SK-MEL-2 melanoma): > 100 µM
- TGI (IGROV1 ovarian): > 100 µM
- TGI (SNB-19 CNS): > 100 µM
- TGI (OVCAR-5 ovarian): > 100 µM
- TGI (UACC-257 melanoma): > 100 µM
- TGI (SNB-75 CNS): > 100 µM
- TGI (EKVX NSCLC): > 100 µM
- TGI (SF-539 CNS): > 100 µM
- TGI (TK-10 renal): > 100 µM
- TGI (DU-145 prostate): > 100 µM
- TGI (SK-OV-3 ovarian): > 100 µM
- TGI (U251 CNS): > 100 µM
- TGI (HOP-62 NSCLC): > 100 µM
- TGI (A549 NSCLC): > 100 µM
- TGI (NCI/ADR-RES ovarian): > 100 µM
- TGI (SF-295 CNS): > 100 µM
- TGI (SK-MEL-28 melanoma): > 100 µM
- TGI (HOP-92 NSCLC): > 100 µM
- TGI (MDA-MB-231 breast): > 100 µM
- TGI (NCI-H23 lung): > 100 µM
- TGI (HCT-15 colon): > 100 µM
- TGI (SR leukemia): > 100 µM
- TGI (M14 melanoma): > 100 µM
- TGI (ACHN renal): > 100 µM
- TGI (KM12 colon): > 100 µM
- TGI (K-562 leukemia): > 100 µM
- TGI (SN12C renal): > 100 µM
- TGI (BT-549 breast): > 100 µM
- TGI (UO-31 renal): > 100 µM
- TGI (HT29 colon): > 100 µM
- TGI (OVCAR-3 ovarian): > 100 µM
- TGI (RXF 393 renal): > 100 µM
- TGI (A498 renal): > 100 µM
- TGI (HL-60(TB) leukemia): > 100 µM

Compound: CC(C)=CC(=O)c1[nH]c2ccccc2c1CC(=O)NCCc1cn(C(c2ccccc2)(c2ccccc2)c2ccccc2)cn1
- TGI (UACC-62 melanoma): 4.72 µM
- TGI (COLO 205 colon): 3.4 µM
- TGI (CCRF-CEM leukemia): > 24.3 µM
- TGI (NCI-H226 lung): 6.28 µM
- TGI (MDA-N): 9.75 µM
- TGI (786-0 renal): > 100 µM
- TGI (NCI-H460 lung): 10.6 µM
- TGI (SW-620 colon): > 100 µM
- TGI (HCT-116 colon): 10.6 µM
- TGI (LOX IMVI melanoma): 4.46 µM
- TGI (MDA-MB-435): 4.42 µM
- TGI (T-47D breast): > 100 µM
- TGI (MOLT-4 leukemia): 5.49 µM
- TGI (SK-MEL-5 melanoma): 3.84 µM
- TGI (HS 578T breast): > 56.5 µM
- TGI (MCF7 breast): > 100 µM
- TGI (SF-268 CNS): > 53.3 µM
- TGI (RPMI-8226 leukemia): 5.23 µM
- TGI (CAKI-1 renal): > 100 µM
- TGI (MALME-3M melanoma): 12.5 µM
- TGI (NCI-H522 lung): 19.8 µM
- TGI (HCC-2998 colon): 3.78 µM
- TGI (PC-3 prostate): 6.75 µM
- TGI (OVCAR-8 ovarian): > 100 µM
- TGI (SK-MEL-2 melanoma): 3.54 µM
- TGI (IGROV1 ovarian): > 45 µM
- TGI (SNB-19 CNS): > 30.4 µM
- TGI (OVCAR-5 ovarian): 87.7 µM
- TGI (UACC-257 melanoma): > 67.4 µM
- TGI (SNB-75 CNS): > 100 µM
- TGI (OVCAR-4 ovarian): > 58.7 µM
- TGI (EKVX NSCLC): > 100 µM
- TGI (SF-539 CNS): 5.21 µM
- TGI (TK-10 renal): > 100 µM
- TGI (DU-145 prostate): > 100 µM
- TGI (SK-OV-3 ovarian): > 100 µM
- TGI (U251 CNS): 9.17 µM
- TGI (HOP-62 NSCLC): > 100 µM
- TGI (A549 NSCLC): > 27.4 µM
- TGI (NCI/ADR-RES ovarian): 10.8 µM
- TGI (SF-295 CNS): > 100 µM
- TGI (SK-MEL-28 melanoma): 12.4 µM
- TGI (HOP-92 NSCLC): > 26.1 µM
- TGI (MDA-MB-231 breast): 6.36 µM
- TGI (NCI-H23 lung): > 36.2 µM
- TGI (HCT-15 colon): > 40.4 µM
- TGI (SR leukemia): 4.88 µM
- TGI (M14 melanoma): 4.8 µM
- TGI (ACHN renal): > 100 µM
- TGI (KM12 colon): 14.2 µM
- TGI (K-562 leukemia): > 59.6 µM
- TGI (SN12C renal): > 23.9 µM
- TGI (BT-549 breast): 11 µM
- TGI (UO-31 renal): > 29.4 µM
- TGI (HT29 colon): > 42.7 µM
- TGI (OVCAR-3 ovarian): > 100 µM
- TGI (RXF 393 renal): 13.5 µM
- TGI (A498 renal): > 50.5 µM
- TGI (HL-60(TB) leukemia): 3.44 µM
